Values of other authors in PMC12751000, “Dual Agonist/Antagonist Modulation of α9-Containing Nicotinic Acetylcholine Receptors by 2‑Ammoniumethyl Ethers of Stilbenol and Stilbenol Analogues” (Journal of Medicinal Chemistry, 2025).

Target: α7[L247T] mutant receptor
Set-up: method as in previous findings, citation number not given
Conditions: chick α7[L247T] mutant; ref: previous findings, citation number not given; cited from earlier work

CC[N+](CC)(CC)CCOc1ccc(/C=C/c2ccccc2)cc1 [Compound 1, 2-triethylammonium ethyl ether of 4-stilbenol]
EC50: 0.2 nM
